Results: patent US20230276835A1, “SAVORY TASTE ENHANCEMENT VIA TRANSMEMBRANE REGION BINDING” (Firmenich Incorporated, priority 2020, published 2023)

Tests used:
T1R1/T1R3 = target: T1, T1R1/T1R3 (Homo sapiens, UniProt Q7RTX1); assay: T1R1/T1R3 assay (cells expressing hT1R1 in the presence of hT1R3); format: cell-based
T1 construct: expressed in transfected cells
T1 sequence (Q7RTX1 21-841): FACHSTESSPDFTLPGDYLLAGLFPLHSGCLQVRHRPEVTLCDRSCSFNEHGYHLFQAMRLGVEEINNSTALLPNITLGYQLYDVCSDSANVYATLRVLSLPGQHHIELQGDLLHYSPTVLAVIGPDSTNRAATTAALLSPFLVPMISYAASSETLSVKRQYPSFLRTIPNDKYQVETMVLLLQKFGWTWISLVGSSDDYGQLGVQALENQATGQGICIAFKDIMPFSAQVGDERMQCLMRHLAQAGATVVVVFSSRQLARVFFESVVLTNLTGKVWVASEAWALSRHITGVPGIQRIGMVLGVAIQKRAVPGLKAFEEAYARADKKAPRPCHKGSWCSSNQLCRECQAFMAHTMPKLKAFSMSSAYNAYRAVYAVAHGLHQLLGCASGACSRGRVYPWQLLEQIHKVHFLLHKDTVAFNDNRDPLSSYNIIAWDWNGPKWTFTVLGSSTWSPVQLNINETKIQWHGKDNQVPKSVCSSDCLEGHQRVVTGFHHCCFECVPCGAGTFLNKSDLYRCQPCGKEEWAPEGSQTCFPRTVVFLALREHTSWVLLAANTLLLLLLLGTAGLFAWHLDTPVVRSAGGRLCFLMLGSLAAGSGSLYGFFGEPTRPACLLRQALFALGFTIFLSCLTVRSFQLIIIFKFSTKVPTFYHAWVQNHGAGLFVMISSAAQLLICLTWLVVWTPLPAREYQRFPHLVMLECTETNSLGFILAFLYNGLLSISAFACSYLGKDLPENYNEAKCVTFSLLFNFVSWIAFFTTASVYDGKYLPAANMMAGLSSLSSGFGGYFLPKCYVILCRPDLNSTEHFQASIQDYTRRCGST
T1 sequence (Q7RTX0 21-852 C757R partner): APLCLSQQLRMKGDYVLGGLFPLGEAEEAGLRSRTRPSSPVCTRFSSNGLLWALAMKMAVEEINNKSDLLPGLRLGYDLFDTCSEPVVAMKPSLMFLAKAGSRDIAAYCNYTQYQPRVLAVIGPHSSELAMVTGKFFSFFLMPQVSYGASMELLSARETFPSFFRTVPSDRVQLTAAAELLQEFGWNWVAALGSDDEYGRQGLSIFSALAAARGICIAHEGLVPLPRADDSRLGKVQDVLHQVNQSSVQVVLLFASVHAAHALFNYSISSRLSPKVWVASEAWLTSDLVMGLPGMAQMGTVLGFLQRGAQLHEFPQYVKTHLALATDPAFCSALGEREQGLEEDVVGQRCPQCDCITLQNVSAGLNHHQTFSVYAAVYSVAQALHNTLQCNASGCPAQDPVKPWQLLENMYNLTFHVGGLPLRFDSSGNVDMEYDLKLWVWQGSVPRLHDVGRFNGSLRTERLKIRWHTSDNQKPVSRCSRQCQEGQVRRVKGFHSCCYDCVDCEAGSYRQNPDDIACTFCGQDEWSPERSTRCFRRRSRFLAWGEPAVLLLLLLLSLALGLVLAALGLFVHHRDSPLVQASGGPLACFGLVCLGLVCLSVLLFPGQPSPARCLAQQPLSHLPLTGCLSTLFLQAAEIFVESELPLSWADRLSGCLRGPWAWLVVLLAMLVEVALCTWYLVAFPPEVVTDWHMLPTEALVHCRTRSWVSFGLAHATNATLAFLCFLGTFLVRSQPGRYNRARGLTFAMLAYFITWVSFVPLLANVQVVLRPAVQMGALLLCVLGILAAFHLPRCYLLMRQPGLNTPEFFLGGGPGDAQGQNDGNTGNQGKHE
Source text: To implement the identification of hT1R1-TMD modulators, cells transiently or stably expressing hT1R1 (T1R1) in the presence of hT1R3 (T1R3) are stimulated with library compounds. Similarly, the same compounds are screened in a GTPγS binding assay utilizing membranes expressing transmembrane domain (TMD) of hT1R1 as described in Zhang et al., Proc. Nat'l Acad. Sci., vol. 105, pp. 20930-20934 (2008). Compounds active exclusively active in the two assays are then prioritized and evaluated in sensory for the detection of an umami note on their own and synergy in the presence of MSG or MSG+IMP.
The compound N-(heptan-4-yl)-benzo[d][1,3]dioxole-5-carboxamide (S807) was used as a test compound in a T1R1/T1R3 assay, both alone and in the presence of monosodium glutamate (MSG).
In a similar way, the T1R1/T1R3 assay was used to measure the activity of monosodium glutamate (MSG), inosine 5′monophosphate (IMP), S807, MSG+IMP, 5807+MSG, 5807+IMP, and 5807+MSG+IMP.

[1] = Sensory testing: paired choice of greater umami taste; format: in vivo, human; details: 16 mM MSG solution vs 4 ppm S807 solution, 32 selections; for number of selections favoring the solution as having greater umami taste: 16 panelists, 2 reps
Source text: Of the 32 selections, 19 favored the MSG solution and 13 favored the S807 solution.

| agonist activity on T1R1/T1R3 (T1R1/T1R3; S807 alone, FIG. 2) | enhancement of the MSG effect on T1R1/T1R3 (T1R1/T1R3; in the presence of MSG, FIG. 2) | effect in combination with MSG (percent activity, FIG. 3) (T1R1/T1R3; with MSG) | effect in combination with MSG and IMP (percent activity, FIG. 3) (T1R1/T1R3; with the combination of MSG and IMP) | SMILES | number of selections favoring the solution as having greater umami taste [1] | preference for MSG versus S807 (umami taste) [1] |
| --- | --- | --- | --- | --- | --- | --- |
| agonist activity | enhancement properties on the MSG effect | synergistic effect | synergistic effect | CCCC(CCC)NC(=O)c1ccc2c(c1)OCO2 [S807, N-(heptan-4-yl)-benzo[d][1,3]dioxole-5-carboxamide] | 13 | no statistically significant preference |
| – | – | – | – | N[C@@H](CCC(=O)O)C(=O)[O-].[Na+] [MSG, monosodium glutamate, reference compound] | 19 | – |
